Source: patent US6670367B1, “Azinyloxy, and phenoxy-diaryl-carboxylic acid derivatives, their preparation and use as mixed ETA/ETB endothelin receptor antagonists” (Abbott GmbH & Co., KG, priority 1996, dated 2003)

melting point	SMILES
171 to 174 °C	COc1cc(C)nc(OC(C(=O)O)C(O/C=C/Cc2ccccc2)(c2ccccc2)c2ccccc2)n1 (stereo not shown) [Compound I-44, 2-(4-Methoxy-6-methyl-2-pyrimidinyloxy)-3-(3-phenyl-(2E)-propenoxy)-3,3-diphenylpropionic Acid]
115 to 119 °C	CCCOc1ccc(CCOC(c2ccccc2)(c2ccccc2)C(Oc2nc(C)cc(OC)n2)C(=O)O)cc1 (stereo not shown) [Compound I-69, 2-(4-Methoxy-6-methyl-2-pyrimidinyloxy)-3-(2-(4-propoxyphenyl)ethoxy)-3,3-diphenylpropionic Acid]
150 to 155 °C	CCc1ccc(C(OCCc2ccc(OC)cc2)(c2ccc(CC)cc2)C(Oc2nc(C)cc(OC)n2)C(=O)O)cc1 (stereo not shown) [Compound I-147, 2-(4-Methoxy-6-methyl-2-pyrimidinyloxy)-3-(2-(4-methoxyphenyl)ethoxy)-3,3-di(4-ethylphenyl)propionic Acid]
172 to 178 °C	Cc1cc(C)nc(OC(C(=O)O)C(OCCCc2ccccc2Cl)(c2ccccc2)c2ccccc2)n1 (stereo not shown) [Compound I-384, 2-(4,6-Dimethyl-2-pyrimidinyloxy)-3-(3-(2-chlorophenyl)propoxy)-3,3-diphenylpropionic Acid]
145 to 147 °C	COc1cc(C)nc(OC(C(=O)O)C(OCCc2ccc(C)cc2)(c2ccccc2)c2ccccc2)n1 (stereo not shown) [Compound I-465, 2-(4-Methoxy-6-methyl-2-pyrimidinyloxy)-3-(2-(4-methylphenyl)ethoxy)-3,3-diphenylpropionic Acid]
85 to 90 °C	COc1cc(C)nc(OC(C(=O)O)C(OCCc2ccccc2OC)(c2ccc(Cl)cc2)c2ccc(Cl)cc2)n1 (stereo not shown) [Compound I-487, 2-(4-Methoxy-6-methyl-2-pyrimidinyloxy)-3-(2-(2-methoxyphenyl)ethoxy)-3,3-di(4-chlorophenyl)propionic Acid]
90 to 100 °C	COc1cc(C)nc(OC(C(=O)O)C(OCCc2ccc(C)cc2)(c2ccc(Cl)cc2)c2ccc(Cl)cc2)n1 (stereo not shown) [Compound I-710, 2-(4-Methoxy-6-methyl-2-pyrimidinyloxy)-3-(2-(4-methylphenyl)ethoxy)-3,3-di(4-chlorophenyl)propionic Acid]

Continued, molecule first:

SMILES	melting point
Cc1cc(C)nc(OC(C(=O)O)C(O/C=C/Cc2ccccc2)(c2ccccc2)c2ccccc2)n1 (stereo not shown) [Compound I-27, 2-(4,6-Dimethyl-2-pyrimidinyloxy)-3-(3-phenyl-(2E)-propenoxy)-3,3-diphenylpropionic Acid]	128 to 133 °C
CCCCOc1ccc(CCOC(c2ccccc2)(c2ccccc2)C(Oc2nc(C)cc(C)n2)C(=O)O)cc1 (stereo not shown) [Compound I-70, 2-(4,6-Dimethyl-2-pyrimidinyloxy)-3-(2-(4-butoxyphenyl)ethoxy)-3,3-diphenylpropionic Acid]	122 to 125 °C
CCCCOc1ccc(CCOC(c2ccccc2)(c2ccccc2)C(Oc2nc(C)cc(OC)n2)C(=O)O)cc1 (stereo not shown) [Compound I-71, 2-(4-Methoxy-6-methyl-2-pyrimidinyloxy)-3-(2-(4-butoxyphenyl)ethoxy)-3,3-diphenylpropionic Acid]	118 to 122 °C
CCc1ccc(C(OCCc2ccc(OC)cc2)(c2ccc(CC)cc2)C(Oc2nc(C)cc(C)n2)C(=O)O)cc1 (stereo not shown) [Compound I-148, 2-(4,6-Dimethyl-2-pyrimidinyloxy)-3-(2-(4-methoxyphenyl)ethoxy)-3,3-di(4-ethylphenyl)propionic Acid]	130 to 133 °C
COc1ccc(CCCOC(c2ccccc2)(c2ccccc2)C(Oc2nc(C)cc(OC)n2)C(=O)O)cc1 (stereo not shown) [Compound I-554, 2-(4-Methoxy-6-methyl-2-pyrimidinyloxy)-3-(3-(4-methoxyphenyl)propoxy)-3,3-diphenylpropionic Acid]	160 to 165 °C
COc1ccc(CCCOC(c2ccccc2)(c2ccccc2)C(Oc2nc(C)cc(C)n2)C(=O)O)cc1 (stereo not shown) [Compound I-555, 2-(4,6-Dimethyl-2-pyrimidinyloxy)-3-(3-(4-methoxyphenyl)propoxy)-3,3-diphenylpropionic Acid]	165 to 170 °C
